These results are taken from PubChem BioAssay (NCI).

Holding throughout (assay): NCI tumour cell line growth inhibition, 48 h
Assay [1] deals with OVCAR-5 ovarian.
Assay [2] relates to U251 CNS.
In assay [3] the test system is UO-31 renal.
Assay [4] deals with CAKI-1 renal.
Assay [5] concerns HCC-2998 colon.
Assay [6] relates to UACC-62 melanoma.
In assay [7] the test system is NCI-H460 lung.
For assay [8], the system named is HOP-92 NSCLC.
The subject of assay [9] is SNB-19 CNS.

The structures appear in SMILES notation.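 Briefly, cells in 96-well plates were exposed to five compound concentrations for 48 h, and endpoints were estimated by linear interpolation. GI50 is the concentration that inhibits growth by half. TGI is the concentration that stops growth completely.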 A value given as a limit tells only on which side of the number the result lay.

Regarding `CSc1nc(SC)c2cnn(-c3ccnc4cc(Cl)ccc34)c2n1`, the GI50 in [1] is more than 100 µM; in [2], 45.4 µM; in [3], more than 100 µM; in assay [4] it was 22.9 µM; in assay [5], 82.7 µM; in [6], 33.9 µM. Moreover, the values for the GI50 in assay [7], in [8] and in assay [9] were 9.36 µM, more than 63.6 µM and more than 100 µM, respectively. In addition, the TGI in [1], in assay [2], in assay [3], in assay [4], in [5] and in [6] was more than 100 µM in each case. Further, the TGI was more than 45.6 µM in assay [7], more than 100 µM in assay [8] and more than 100 µM in assay [9].

`COc1cc2cc(Oc3ccc(NC(=O)Nc4ccc(F)c(C(F)(F)F)c4)cc3)c(C)nc2cc1OCCN1CCOCC1`: the GI50 in [1] is 5.11 µM; in [2], 2.83 µM; in assay [3], 1.71 µM; in assay [4] it was 2.06 µM; in assay [5], 5.34 µM; in assay [6] it was 1.36 µM. Besides, the results for the GI50 in assay [7], in [8] and in [9] were 1.96 µM, 1.31 µM and 3.96 µM, respectively. Also, the TGI is 21.7 µM in assay [1]; 11.1 µM in assay [2]; 10.6 µM in [3]; 9.55 µM in assay [4]; 16.7 µM in assay [5]; 4.24 µM in assay [6]. Further, the figures for the TGI in [7], in assay [8] and in assay [9] were 5.34 µM, 4.96 µM and 19.3 µM, respectively.

In the case of `Cc1cc(C)c2c(=O)cc(-c3ccc(F)cc3)[nH]c2n1`, the TGI in assay [1] is more than 100 µM; in [2], more than 100 µM; in [3] it was 92.4 µM; in assay [4], more than 100 µM; in assay [5], more than 100 µM; in assay [6] it was more than 100 µM. Further, the TGI in [7] was more than 100 µM; in assay [8], 90.3 µM; in [9], more than 100 µM. The GI50 in assay [2] is 95.1 µM; in assay [7], 51.6 µM.

Take `O=C1NC(=N[C@@H]2C[C@H]2c2ccccc2)S/C1=C\c1ccc2ncccc2c1`: the GI50 in assay [1] was 4.33 µM; in [2] it was 0.875 µM; in assay [3], 2.06 µM; in [4], 1.03 µM; in [5], 1.93 µM; in assay [6] it was 1.2 µM. Also, the GI50 in [7] was 1.32 µM; in assay [8], 3.68 µM; in assay [9], 2.98 µM. Moreover, the TGI in [1] is more than 20.7 µM; in assay [2] it was 6.94 µM; in assay [3], 6.78 µM; in assay [4], 6.46 µM; in assay [5], 18.4 µM; in [6], 5.61 µM. The TGI in assay [7] was determined as 6.79 µM; in assay [8], 10.1 µM; in assay [9], 24.8 µM.

Take `Cc1cccc2c1NC(=O)[C@@H](NC(=O)[C@H](CCC(F)(F)F)[C@H](CCC(F)(F)F)C(N)=O)N=C2c1cccc(F)c1`: the GI50 in assay [1] is 86.4 µM; in assay [2], 20.2 µM; in [3] it was more than 100 µM; in assay [4], more than 100 µM; in [5] it was 60 µM; in assay [6] it was 28.2 µM. The results for the GI50 in [7], in [8] and in assay [9] were 31.3 µM, 14.4 µM and 17 µM, respectively. Moreover, the TGI is more than 100 µM in assay [1]; 59.2 µM in assay [2]; more than 100 µM in assay [3]; more than 100 µM in assay [4]; more than 100 µM in [5]; more than 100 µM in assay [6]. Also, the TGI in assay [7] is more than 100 µM; in assay [8], 57.1 µM; in assay [9], 41 µM.

Regarding `COc1cc(C)cc(C(=O)OCc2ccccc2)c1C1=C(Cl)C(=O)C(Cl)=CC1=O`, the TGI in [1], in [2], in assay [3], in assay [4], in assay [5] and in [6] was more than 10 µM in each case. Further, the TGI is more than 10 µM in [7], 9.92 µM in [8] and more than 10 µM in assay [9].

Regarding `O=C1/C(=C\c2ccc(Cl)cc2)CN(C(=O)c2ccccc2)C/C1=C\c1ccc(Cl)cc1`, the GI50 in assay [1] is 5.24 µM; in assay [2] it was 1.57 µM; in assay [3], 1.83 µM; in [4] it was 8.45 µM; in assay [5], 2.03 µM; in assay [6], 1.86 µM. Besides, the GI50 in [7] is 5.97 µM; in [8], 7.18 µM; in assay [9], 3.27 µM. For the same compound, the TGI in [1] is 43.2 µM; in [2] it was 3.26 µM; in assay [3], 5.33 µM; in [4] it was more than 100 µM; in assay [5] it was 3.97 µM; in assay [6], 4.55 µM. The figures for the TGI in assay [7], in [8] and in assay [9] were more than 84.7 µM, 55.9 µM and 19.3 µM, respectively.

As to `CSc1nc(SC)c2c(C)cn(Cc3ccccc3)c2n1`, the TGI in [1], in assay [2], in assay [3], in [4], in [5] and in [6] was more than 100 µM in each case. Also, the TGI in assay [7], in assay [8] and in assay [9] was more than 100 µM each time.

Take `O=C1C2=C(c3ccccc31)C(c1ccccc1Cl)NC(=S)N2` (stereo unspecified): the TGI in [1], in assay [2], in [3], in assay [4], in assay [5] and in assay [6] was more than 100 µM each time. For the same compound, the TGI in assay [7] is more than 100 µM; in assay [8] it was 68.4 µM; in assay [9], more than 100 µM.

As for `O=P1(O)c2ccccc2CSCc2ccccc21`, the TGI in assay [1], in assay [2], in assay [3], in [4], in assay [5] and in assay [6] was more than 100 µM in each case. Further, the TGI in [7], in assay [8] and in [9] was more than 100 µM throughout.

Regarding `CCOC(=O)Nc1ccc2c3c(cccc13)-c1ccccc1-2`, the GI50 is more than 100 µM in [1]; 5.52 µM in assay [2]; 2.59 µM in assay [3]; 3.29 µM in [4]; 9.56 µM in assay [5]; 3.71 µM in [6]. In addition, the figures for the GI50 in assay [7], in assay [8] and in assay [9] were 3.99 µM, more than 100 µM and 23.5 µM, respectively. In addition, the TGI in assay [1], in assay [2], in [3], in [4], in assay [5] and in assay [6] was more than 100 µM throughout. The TGI in [7], in assay [8] and in assay [9] was more than 100 µM in each case.

As for `CC(C)[C@]12O[C@H]1[C@@H]1O[C@]13[C@]1(O[C@H]1C[C@H]1C4=C(CC[C@@]13C)C(=O)OC4)[C@@H]2OC(=O)OC(C)(C)C`, the GI50 in assay [1] was 0.0419 µM; in [2], 0.0253 µM; in [3], 0.0164 µM; in assay [4], 0.0226 µM; in assay [5] it was 0.0166 µM; in assay [6], 0.0178 µM. The values for the GI50 in assay [7], in assay [8] and in assay [9] were less than 0.01 µM, 0.0448 µM and 0.128 µM, respectively. Further, the TGI was more than 100 µM in [1]; more than 100 µM in [2]; more than 100 µM in assay [3]; more than 100 µM in assay [4]; 0.064 µM in assay [5]; 0.0571 µM in [6]. Moreover, the TGI was more than 33.6 µM in assay [7] and more than 100 µM in assay [9].

`CCOC(=O)Cc1csc(Nc2nc(O)c(C3=c4ccccc4=NC3=O)s2)n1`: the GI50 was 43.6 µM in assay [1]; 19.2 µM in assay [2]; 23 µM in assay [3]; 24.3 µM in assay [4]; 29.8 µM in assay [5]; 15.7 µM in assay [6]. The results for the GI50 in [7], in assay [8] and in assay [9] were 21.6 µM, 22.2 µM and 38.4 µM, respectively. In addition, the TGI in [1] was more than 100 µM; in assay [2], 39.6 µM; in assay [3], 51.6 µM; in assay [4], 57.2 µM; in [5], more than 100 µM; in assay [6], 34.6 µM. The results for the TGI in assay [7], in [8] and in [9] were 65.2 µM, 52.3 µM and more than 100 µM, respectively.

`O=C(NCCNc1nccc(-c2c(-c3ccc(F)cc3)nc3sccn23)n1)Nc1cccc(C(F)(F)F)c1`: the GI50 in assay [1] was 18.5 µM; in [2], 7.62 µM; in assay [3] it was 2.94 µM; in assay [4], 3.68 µM; in [5], 5.21 µM; in assay [6], 4.75 µM. The GI50 in [7] was 4.51 µM; in assay [8] it was 4.59 µM; in [9], 7.93 µM. Besides, the TGI in assay [1] came to 54.4 µM; in assay [2], 31.7 µM; in assay [3], 16 µM; in assay [4], 27.6 µM; in assay [5] it was 17.7 µM; in assay [6] it was 17 µM. The TGI came out at 17.5 µM in [7], 33.3 µM in assay [8] and 36.8 µM in assay [9].

Turning to `CCN1C2=C(SC(=S)C1=C1SC(C(=O)c3ccccc3)=C(C(=O)c3ccccc3)S1)SC(=Nc1ccccc1)C2=O`, the GI50 in [1] is more than 100 µM; in [2] it was 3.39 µM; in [3], 5.9 µM; in [4] it was 48 µM; in assay [5] it was more than 100 µM; in assay [6], 12 µM. For the same compound, the GI50 in assay [7] is 27.8 µM; in assay [8], 22.5 µM; in [9] it was 53.4 µM. Further, the TGI is more than 100 µM in [1]; more than 60.5 µM in [2]; more than 100 µM in assay [3]; more than 100 µM in assay [4]; more than 100 µM in [5]; more than 70.1 µM in [6]. The TGI in [7], in [8] and in assay [9] was more than 100 µM each time.

Consider `CC12OC(C(=O)C13CC3)C1C(=O)c3cccc(O)c3C(=O)C12` (stereo unspecified), for which the GI50 in assay [1] is 24.5 µM; in assay [2] it was 8.29 µM; in assay [3], 23.1 µM; in assay [4] it was 3.43 µM; in assay [5] it was 18.5 µM; in [6], 5.23 µM. Besides, the GI50 in assay [7] is 18.6 µM; in assay [8], 31.1 µM; in assay [9], 10.4 µM. The TGI in assay [1] is more than 66.3 µM; in assay [2] it was more than 58.8 µM; in assay [3], more than 100 µM; in assay [4], 11.1 µM; in assay [5], 46.7 µM; in assay [6], 37.2 µM. Besides, the TGI in assay [7] is 68.3 µM; in [8], more than 100 µM; in assay [9], 40.1 µM.

`CC(C)c1ccc2c(c1)CCC1C(C)(CN)CCCC21C` (stereo unspecified): the TGI in assay [1] came to 3.33 µM; in [2], 2.83 µM; in [3], 2.66 µM; in assay [4] it was 2.96 µM; in assay [5], 0.485 µM; in assay [6], 3.14 µM. Moreover, the TGI in [7] was determined as 2.6 µM; in assay [8], 2.97 µM; in assay [9], 2.96 µM.

As for `Cc1cn2c(/C=N/NC3=NCCN3)c(-c3ccc(Cl)c([N+](=O)[O-])c3)nc2s1`, the GI50 in assay [1] was 6.75 µM; in [2], 0.947 µM; in assay [3] it was 0.715 µM; in [4], 1.98 µM; in assay [5] it was 2.12 µM; in assay [6], 0.933 µM. The GI50 was 2.34 µM in assay [7], 0.776 µM in assay [8] and 1.48 µM in [9]. In addition, the TGI was 17.2 µM in assay [1]; 1.75 µM in assay [2]; 1.44 µM in assay [3]; 10 µM in [4]; more than 50 µM in [5]; 1.98 µM in [6]. The TGI in assay [7] was more than 50 µM; in assay [8] it was 2.82 µM; in assay [9], more than 50 µM.
